These are literature values, as cited in patent publication US20130244874A1, “Waterless Composition Comprising Pesticide and Copolymers with Sulfonic Acid Groups” (BASF SE, priority 2010, published 2013).

In brackets after ≈: the same amount, converted by molar mass.

On to `Cn1cc(C(=O)Nc2ccccc2-c2cc(F)c(F)c(F)c2)c(C(F)F)n1` [Fluxapyroxad, reference compound], for which the solubility in water (20° C.) was 3.8 µg/mL (≈ 9.97 µM).
As to `C[S+](C)[O-]` [Solvent E, DMSO], the miscibility with water entry (solvent) was “infinitely miscible with water”.
As to `O=C1CCCO1` [Solvent G, gamma-butyrolactone], the miscibility with water entry (solvent) is reported as “infinitely miscible with water”.
For `CC(C)CCCCCCOC(=O)C1CCCCC1C(=O)OCCCCCCC(C)C` (stereo not shown) [Solvent C, Diisononyl 1,2-cyclohexanedicarboxylate], the water-soluble (solvent, temperature not given) was under 0.02 mg/L.
